Read-outs that look alike come from different tables or passages of the source.
Tested on: OCI-LY10
Assay: CTG Cell Viability Assay - OCI-LY10
Type: cell-based, human
Settings: OCI-LY10, 4 days, read-out: CTG Cell Viability Assay - OCI-LY10: Average external-IC50
Experimental: Compound-mediated viability effect on OCI-LY10 or TMD8 was quantitatively determined using the CellTiter-Glo® Luminescent Cell Viability Assay kit from Promega (Catalog number G7570) following manufacturer's recommended procedures. […] Compounds were then added to the assay plate with final top concentration of 10 μM and 1:3 dilution series with total of 9 doses. The final DMSO concentration was normalized to 0.2%. The assay plates were incubated at 37° C. for 4 days under 5% CO2. Then the assay plate was equilibrated at room temperature for 10 minutes. […] The data was then analyzed by software Prism 7.0 from GraphPad and the dose response curves were fit using a three-parameter logistic equation to calculate IC50.

Row | Compound | IC50 (Homo sapiens, OCI-Ly10, 96 h) [nM] | IC50 [nM]
1 | CN(CC1CCC(n2cc(NC(=O)c3coc(-c4ccnc(NCC5CC5)c4)n3)c(C(F)F)n2)CC1)C[C@H]1CN(CCCc2cccc3c2n(C)c(=O)n3C2CCC(=O)NC2=O)CCO1 (stereo partly shown) [I-113] | > 1000 | 
2 | CN(CCCOCC#Cc1ccc2c(c1)n(C)c(=O)n2C1CCC(=O)NC1=O)C[C@H]1CC[C@H](n2cc(NC(=O)c3coc(-c4ccnc(NCC5CC5)c4)n3)c(C(F)F)n2)CC1 (stereo partly shown) [I-126] | > 1000 | 
3 | Cn1c(=O)n(C2CCC(=O)NC2=O)c2cccc(-c3ccc4c(cnn4CCOC[C@H]4CC[C@H](n5cc(NC(=O)c6cnn7ccc(N8CCOCC8)nc67)c(C(F)F)n5)CC4)c3)c21 (stereo partly shown) [I-405] | > 1000 | 
4 | CN1C(=O)C(C2CCC(=O)NC2=O)c2cccc(CCCOC3CCN(CC4CCC(n5cc(NC(=O)c6cnn7ccc(NC8CCCCC8O)nc67)c(C(F)F)n5)CC4)CC3)c21 (stereo not shown) [I-290] |  | > 1000
5 | CN(C[C@@H]1CN(CCNCc2ccc3c(c2)n(C)c(=O)n3C2CCC(=O)NC2=O)CCO1)C(=O)[C@H]1CC[C@H](n2cc(NC(=O)c3coc(-c4ccnc(NCC5CC5)c4)n3)c(C(F)F)n2)CC1 (stereo partly shown) [I-106] | > 1000 | 
6 | Cn1c(=O)n(C2CCC(=O)NC2=O)c2cccc(-c3ccc4nn(CCOC[C@H]5CC[C@H](n6cc(NC(=O)c7cnn8ccc(N9CCOCC9)nc78)c(C(F)F)n6)CC5)cc4c3)c21 (stereo partly shown) [I-406] | > 1000 | 
7 | Cn1c(=O)n(C2CCC(=O)NC2=O)c2ccc(C#CC3CCN(C[C@H]4CC[C@H](n5cc(NC(=O)c6coc(-c7ccnc(NCC8CC8)c7)n6)c(C(F)F)n5)CC4)CC3)cc21 (stereo partly shown) [I-111] | > 1000 | 
8 | O=C1CCC(n2c3ccccc3c3c(CCCOC4CCN(CC5CCC(n6cc(NC(=O)c7coc(-c8ccnc(NCC9CC9)c8)n7)c(C(F)F)n6)CC5)CC4)ccnc32)C(=O)N1 (stereo not shown) [I-123] | 500 to 1000 | 
9 | CN(CC[C@@H]1CN(CCCc2cccc3c2n(C)c(=O)n3C2CCC(=O)NC2=O)CCO1)C[C@H]1CC[C@H](n2cc(NC(=O)c3coc(-c4ccnc(NCC5CC5)c4)n3)c(C(F)F)n2)CC1 (stereo partly shown) [I-116] | > 1000 | 
10 | Cn1c(=O)n(C2CCC(=O)NC2=O)c2cccc(CCCOC3CCN(C[C@H]4CC[C@H](n5cc(NC(=O)c6cnn7ccc(N8CCNCC8)nc67)c(C(F)F)n5)CC4)CC3)c21 (stereo partly shown) [I-125] | > 1000 | 
11 | CN(CCOCCCc1cccc2c1n(C)c(=O)n2C1CCC(=O)NC1=O)C[C@H]1CC[C@H](n2cc(NC(=O)c3coc(-c4ccnc(NCC5CC5)c4)n3)c(C(F)F)n2)CC1 (stereo partly shown) [I-124] | > 1000 | 
12 | CN(CCOCCCc1ccc2c(c1)n(C)c(=O)n2C1CCC(=O)NC1=O)C[C@H]1CC[C@H](n2cc(NC(=O)c3coc(-c4ccnc(NCC5CC5)c4)n3)c(C(F)F)n2)CC1 (stereo partly shown) [I-128] | > 1000 | 
13 | Cn1c(=O)n(C2CCC(=O)NC2=O)c2ccc(CCCOCC3CCN(C[C@H]4CC[C@H](n5cc(NC(=O)c6coc(-c7ccnc(NCC8CC8)c7)n6)c(C(F)F)n5)CC4)CC3)cc21 (stereo partly shown) [I-119] | > 1000 | 
14 | CN(C[C@@H]1CN(CCNCc2ccc3c(c2)n(C)c(=O)n3C2CCC(=O)NC2=O)CCO1)C[C@H]1CC[C@H](n2cc(NC(=O)c3coc(-c4ccnc(NCC5CC5)c4)n3)c(C(F)F)n2)CC1 (stereo partly shown) [I-109] | > 1000 | 
15 | Cn1c(=O)n(C2CCC(=O)NC2=O)c2cccc(CCCOC3CN(C[C@H]4CC[C@H](n5cc(NC(=O)c6coc(-c7ccnc(NCC8CC8)c7)n6)c(C(F)F)n5)CC4)C3)c21 (stereo partly shown) [I-122] | > 1000 | 
16 | Cn1c(=O)n(C2CCC(=O)NC2=O)c2cccc(CCCOCC(F)CNC(=O)c3cnc(-n4ncc5cc(C#N)cnc54)cc3NC3CC3)c21 (stereo not shown) [I-137] | > 1000 | 

Reference: US11352350B2, “IRAK degraders and uses thereof” (Kymera Therapeutics, Inc., priority 2018, dated 2022)
